In data set [1] the test system is NO production in LPS-treated RAW 264.7 cells. As to the kind of experiment: Inhibition of NO production (Griess reaction) in LPS-treated RAW 264.7 macrophages. It counts as cell-based, mouse. Conditions: for IC50: Mus musculus, RAW264.7, LPS (100 ng/mL, 48 h)-treated RAW 264.7 cells, 1 h pre-treatment, Griess reaction, vs vehicle Carbowax 400; for anti-inflammatory activity (inhibition of NO production), in words: TLR4 (LPS) stimulated macrophages. The protocol:
(§1) The IC50 values for the inhibition of NO production were determined in LPS-treated RAW 264.7 cells in comparison to cells treated with the vehicle (Carbowax 400) only (Table 3, Figure S1). To verify that the anti-inflammatory activity observed was not due to cytotoxic effect, the potential cytotoxicity of 1–6, 8, 10 and 11 was evaluated using the MTT assay following 24, 48 and 72 h of treatment in RAW 264.7 macrophages (Table 3, Figure S2).
(§2) Mouse macrophage cell line RAW 264.7 was cultured in DMEM medium (cat. # 21885-025, Gibco, Thermo Fisher Scientific, Waltham, MA, USA) supplemented with 10% heat inactivated fetal bovine serum (cat. # 10270-106, Gibco, Thermo Fisher Scientific, Waltham, MA, USA) and 1% penicillin-streptomycin (cat. # 15070-063, Gibco, Thermo Fisher Scientific, Waltham, MA, USA). Cells were cultured in 37 °C and 5% CO2. Each compound was diluted in Carbowax^TM 400 + 10% ethanol (cat. # 1.00983, Merck, Darmstadt, Germany), used also as control solvent. Final concentration in culture was 0.1% v/v carbowax and 0.01% v/v ethanol. RAW 264.7 macrophages were activated using 100 ng/mL lipopolysaccharide (LPS) (L2630, Merck, Darmstadt, Germany). In IC50 determination experiments, macrophages were pre-treated for 1 h with the respective compound prior to LPS stimulation.
30 × 10^4 RAW 264.7 mouse macrophages were plated in 24-well plates over-night with 0.5 mL complete medium. Cells were pretreated for 1 h with the respected compound concentration and then stimulated with 100 ng/mL LPS (L2630, Merck, Darmstadt, Germany) for 48 h. The amount of nitrite, an oxidative product of NO, was measured in culture supernatant of each sample using the Griess reaction. 100 μL of supernatant was mixed with 100 μL of sulfanilamide solution (1% sulfanilamide in 5% H3PO4) and incubated for 5 min at room temperature. Then, 100 μL of NED solution (0.1% N-1-napthylethylenediamine dihydrochlorite in H2O) was added and the absorbance was measured in an automated microplate reader (Infinite 200 PRO, Tecan, Männedorf, Switzerland) at 540 nm. Nitrite concentration was calculated using a sodium nitrite standard curve. All incubations were performed in the dark.

Data set [2] is described as follows: Cytotoxicity by MTT assay in RAW 264.7 macrophages. To be noted: mouse, 72 h of treatment. In kind it is cell-based, mouse. The protocol:
as §1, §2
(§3) 3.5 × 10^3 RAW 264.7 mouse macrophages were seeded in 96-well plate and cultured over night. Cells were subsequently treated with the respective compound concentration and incubated for 24, 48 and 72 h. Number of cells was measured prior to treatment and used as normalisation control. Thiazolyl Blue Tetrazolium Bromide (MTT) (A2231.001, Applichem GmbH, Darmstadt, Germany) was added to the cells in a final concentration of 0.5 mg/mL and then cells were incubated at 37 °C and 5% CO2 for 4 h. The supernatant was discarded and cells were lysed with 2-propanol (33539, Honeywell, Charlotte, NC, USA) with 0.4% HCl (30721, Merck, Darmstadt, Germany). The absorbance of each sample was measured in an automated microplate reader (Infinite 200 PRO, Tecan, Männedorf, Switzerland) at 600 nm. The average OD of each treated sample was normalized to the OD of the control sample and statistical analysis was performed using Graphpad Prism 7.0 (GraphPad Software, San Diego, CA, USA).
A general note: Tetrazolium assays rely on reduction of a dye to a coloured formazan, in cell work by metabolically active cells.

The test system of another data set is RAW 264.7 macrophages. The experiment in a line: Cytotoxicity by MTT assay in RAW 264.7 macrophages. It counts as cell-based, mouse. To be noted: for concentration above which cytotoxicity was observed: 72 h following treatment. The procedure: as §1, §2, §3
Data set [3] can be described thus: Stability of isolated metabolites (observation). It counts as physicochemical. Conditions: reason why bioactivity was not evaluated.

These results are taken from paper PMC6891555, “Thuwalallenes A–E and Thuwalenynes A–C: New C15 Acetogenins with Anti-Inflammatory Activity from a Saudi Arabian Red Sea Laurencia sp” (Marine Drugs, 2019).

Entries after “also recorded” stand apart in the source; their conditions may differ.

What is called IC50 is the concentration needed to halve the response being measured.

With `C#C/C=C\C[C@@H]1O[C@@H]2C[C@@H](Br)[C@H](CC)O[C@@H]2C[C@@H]1Br` (relative stereo) [Compound 4, Thuwalenyne A], in data set [1], the IC50 was more than 62.5 µM and the “anti-inflammatory activity (inhibition of NO production), in words” value is “did not exhibit any activity; also recorded: did not exhibit anti-inflammatory activity”. The same compound came in with an IC50 at 72 h in data set [2] of more than 62.5 µM. Also, the “cytotoxicity, in words” value with RAW 264.7 macrophages is given as “did not exhibit anti-inflammatory activity or cytotoxicity”.

Consider `CC(=O)OC(C)(C)C1CCC(C)(C(O)CCC(C)(O)C2CCC3OC(C4(C)CCC(Br)C(C)(C)O4)CCC3(C)O2)O1` (centres unmarked) [Compound 11, 23-acetylthyrsiferol], for which, in data set [1], the half-inhibitory concentration (IC50) amounted to 0.00263 µM and the “anti-inflammatory activity (inhibition of NO production), in words” value is listed as “IC50 values in the low nM scale”. In addition, the half-inhibitory concentration (IC50) in data set [2] is more than 0.01 µM. In the data set on RAW 264.7 macrophages, the “concentration above which significant cytotoxicity was observed” value was “above 10 nM” and the “cytotoxicity, in words” value is on record as “without significant cytotoxicity”.

With `C#C/C=C\CC(Br)[C@H]1C[C@H]2O[C@@H](CC)[C@H](Br)C[C@H]2O1` (relative stereo) [Compound 6, Thuwalenyne B], the IC50 in data set [1] worked out at 37.4 ± 2.51 µM. The concentration for half-maximal inhibition (IC50) at 72 h in data set [2] is more than 15.6 µM. Also, the “concentration above which cytotoxicity was observed” value in the data set with RAW 264.7 macrophages is “higher than 15.62 μM”.

Take `C#C/C=C\C/C=C\C[C@H]1O[C@@H](CC)[C@H](Br)C[C@H]1O` (relative stereo) [Compound 7, Thuwalenyne C]: the “stability of the metabolite, in words” value in data set [3] is reported as “proven to be unstable”.

Regarding `CCC1OC2CC3OC3CC(C=C=CBr)OC2CC1Br` (centres unmarked) [Compound 1, Thuwalallene A], the concentration for half-maximal inhibition (IC50) in data set [1] was 26 ± 3.73 µM. In addition, the IC50 at 72 h in data set [2] was more than 15.6 µM. In addition, the “concentration above which cytotoxicity was observed” value in the data set with RAW 264.7 macrophages is given as “higher than 15.62 μM”.

Take `CCC1OC2CC(C(O)CC(Cl)C=C=CBr)OC2CC1Br` (centres unmarked) [Compound 5, Thuwalallene D]: in data set [1], the IC50 came out at 12.4 ± 1.04 µM. In addition, the IC50 at 72 h in data set [2] is more than 15.6 µM. In addition, in the data set with RAW 264.7 macrophages, the “concentration above which cytotoxicity was observed” value is recorded as “higher than 15.62 μM”.

As to `CCC(Br)C1CC2OC(C=C=CBr)CC=CCC2O1` (centres unmarked) [Compound 8, Thuwalallene E], the concentration for half-maximal inhibition (IC50) in data set [1] amounted to 3.98 ± 0.6 µM. In data set [2], this compound returned an IC50 at 72 h of more than 7.81 µM. Further, the “concentration above which cytotoxicity was observed” value in the data set on RAW 264.7 macrophages was not below 7.81 µM.

Regarding `CC(C)(O)[C@H]1CC[C@](C)([C@@H](O)CC[C@](C)(O)[C@H]2CC[C@H]3O[C@@H]([C@]4(C)CC[C@@H](Br)C(C)(C)O4)CC[C@]3(C)O2)O1` [Compound 10, thyrsiferol], the “anti-inflammatory activity (inhibition of NO production), in words” value in data set [1] was “IC50 values in the low nM scale”. The IC50 at 72 h in data set [2] was more than 0.1 µM. For the same compound, in the data set with RAW 264.7 macrophages, the “concentration above which significant cytotoxicity was observed” value is listed as “above 100 nM” and the “cytotoxicity, in words” value was “without significant cytotoxicity”.

`CC[C@@H]1O[C@@H]2C[C@@H]3O[C@@H]3C[C@H](C=C=CBr)O[C@@H]2C[C@H]1Br` (relative stereo) [Compound 2, Thuwalallene B]: the IC50 in data set [1] was found to be 13.2 ± 0.57 µM. The IC50 at 72 h in data set [2] is more than 31.2 µM. Also, in the data set with RAW 264.7 macrophages, the “concentration above which cytotoxicity was observed” value was more than 31.25 µM.

Turning to `CC[C@@H]1O[C@@H]2C/C=C\C[C@H](C=C=CBr)O[C@@H]2C[C@H]1Br` (relative stereo) [Compound 3, Thuwalallene C], the IC50 in data set [1] was 4.18 ± 0.48 µM. The IC50 at 72 h in data set [2] was more than 15.6 µM. Besides, the “concentration above which cytotoxicity was observed” value in the data set with RAW 264.7 macrophages is “higher than 15.62 μM”.
